From patent US12097203B2, “Combination therapies comprising SHP2 inhibitors and PD-1 inhibitors” (HUYABIO International, LLC, priority 2021, dated 2024)

Tested on: MC38 tumor
Assay: Cytokine detection assay (V-Plex Proinflammatory Panel 1 Mouse Kit) in MC38 tumor bearing animals
Format: in vivo, mice
Settings: MC38 tumor model, plasma from tumor bearing animals 2 hours post last dose
Source text: Reagents: GH21001 (TNO-155), GH21005 (compound of Formula Ia) were supplied by HUYA Biosciences, USA, RMC-4550 was purchased from MCE, China. Osimertinib was purchased from Selleck, China. Cisplatin was purchased from Qilu Pharma, China. Anti-PD-1 (RMP1-14) and Rat IgG2a antibodies were purchased from BioXCell (China).
All cell lines were maintained in culture and cells in exponential growth phase were harvested and quantitated by cell counter before tumor inoculation. MC38 tumor cells (1×10^6) in 0.1 ml of PBS were inoculated into the right front flank of female C57/Bl animals, mean tumor size approximately 112 mm^3 at the start of treatment.
The date of randomization and treatment initiation was denoted as day 0. Tumor volumes were measured twice per week in two dimensions using a caliper, and the volume will be expressed in mm3 using the formula: V=(L×W×W)/2, where V is tumor volume, L is tumor length (the longest tumor dimension) and W is tumor width (the longest tumor dimension perpendicular to L). Dosing volume was 10 mL/kg/day. […]
Cytokine detection assay: V-Plex Proinflammatory Panel 1 Mouse Kit (Mesoscale Discovery) was used to determine cytokine levels in plasma isolated from tumor bearing animals 2 hours post last dose. Plasma from tumor bearing animals was analyzed as described by the manufacture's guidelines. […]

`C[C@@H]1OCC2(CCN(c3cnc(Sc4cccc(NC(=O)c5c(O)nc6n(c5=O)CCCC6)c4Cl)cn3)CC2)[C@@H]1N` [compound of Formula (Ia), N-(3-((5-((3S,4S)-4-amino-3-methyl-2-oxa-8-azaspiro[4.5]decan-8-yl)pyrazin-2-yl)thio)-2-chlorophenyl)-2-hydroxy-4-oxo-6,7,8,9-tetrahydro-4H-pyrido[1,2-a]pyrimidine-3-carboxamide] was tested, and the KC/GRO level (FIG. 2A) was “slight decreases” and the TNF-alpha level (FIG. 2B) was “slight decreases”.
